{
  "source": "patent US20240279338A1",
  "about": "“Combination Treatment of Cancer” (Ares Trading S.A., priority 2021, published 2024)",
  "key": {"ADORA2B (A2B)": {"system": "ADORA2B (A2B)", "assay": "RNAseq gene expression in 4T1 tumors", "format": "in vivo, mice", "conditions": "CD73hi 4T1 tumors; bintrafusp alfa 24.6 mg/kg iv; Day 6 post treatment; vs isotype", "method": "(§1) FIG. 4: Bintrafusp alfa increases expression of A2B in CD73h adenosine-rich 4T1 tumor model, but not in CD73^low adenosine-low MC38 tumor model. For the 4T1 tumor model, female BALB/c mice were inoculated with 2×10^5 4T1 cells into the right mammary fat pad. For the MC38 tumor model, female C57BL/6 mice were inoculated subcutaneously in the right flank with MC38 cells (1×10^6). Animals in both studies were randomized into the groups and treatments started when the average tumor size reached approximately 100-150 mm^3. For both models, there were 15 mice in each group. The animals were treated with isotype control (20 mg/kg, iv) or bintrafusp alfa (24.6 mg/kg, iv) on days 0, 1, and 2. Tumors were harvested on Day 6 post treatment start, flash frozen, and used for RNASeq analysis. Gene expression levels of (A) NT5E, (B) ADORA2A (A2A), and (C) ADORA2B (A2B) are presented as mean±SEM. P-values were calculated using two-way ANOVA.\n(§2) To determine whether bintrafusp alfa treatment modulates expression of A2A or A2B receptors or NT5E (gene encoding CD73), mice with established 4T1 and MC38 tumors were treated with 20 mg/kg isotype antibody or 24.6 mg/kg bintrafusp alfa."}, "ADORA2A (A2A) [1]": {"system": "ADORA2A (A2A)", "assay": "RNAseq gene expression in 4T1 tumors", "format": "in vivo, mice", "conditions": "bintrafusp alfa 24.6 mg/kg iv, Day 6 post treatment, vs isotype", "method": "as §1, §2"}, "NT5E (CD73) [2]": {"system": "NT5E (CD73)", "assay": "RNAseq gene expression in 4T1 tumors", "format": "in vivo, mice", "conditions": "bintrafusp alfa 24.6 mg/kg iv, Day 6 post treatment, vs isotype", "method": "as §1, §2"}, "MBT2 cells": {"system": "MBT2 cells", "assay": "CD73low MBT2 syngeneic tumor model, tumor growth", "format": "in vivo", "conditions": "MBT2, female C3H mice; Day 14; Compound A 300 mg/kg po BID; bintrafusp alfa 24.6 mg/kg iv days 0, 3, 6", "method": "Female C3H mice were inoculated with 1×10^6 MBT2 cells in the right upper flank and were treated with Compound A (300 mg/kg po, BID), bintrafusp alfa (24.6 mg/kg iv, days 0, 3, 6), Compound A+bintrafusp alfa, when average tumor volume reached approximately 53 mm^3. Vehicle (po, BID) and isotype control antibody injections (20 mg/kg iv, days 0, 3, 6) were used as controls. (A) Average tumor volumes with SEM, and (B) individual tumor volumes are presented. Tumor volume data were analyzed using two-way ANOVA followed by Tukey's multiple comparison test.\nTo determine whether combined treatment with the dual A2A/A2B receptor inhibitor “Compound A” ((S)-7-Oxa-2-aza-spiro[4.5]decane-2-carboxylic acid [7-(3,6-dihydro-2H-pyran-4-yl)-4-methoxy-thiazolo[4,5-c]pyridin-2-yl]-amide) and bintrafusp alfa can inhibit tumor growth in either CD73^hi or CD73^low models, tumor growth was monitored in […] syngeneic tumor models. Animals were inoculated with either CD73^hi tumor cells (4T1, E0771, or EMT6) or with CD73^low MC38, H22 or MBT2 tumor cells. For all tumor models, animals were treated with either 1) vehicle and isotype, 2) Compound A and isotype, 3) vehicle and bintrafusp alfa, or 4) Compound A and bintrafusp alfa. […]"}, "ADORA2A (A2A) [3]": {"system": "ADORA2A (A2A)", "assay": "RNAseq gene expression in MC38 tumors", "format": "in vivo, mice", "conditions": "bintrafusp alfa 24.6 mg/kg iv, Day 6 post treatment, vs isotype", "method": "as §1, §2"}, "NT5E (CD73) [4]": {"system": "NT5E (CD73)", "assay": "RNAseq gene expression in MC38 tumors", "format": "in vivo, mice", "conditions": "bintrafusp alfa 24.6 mg/kg iv, Day 6 post treatment, vs isotype", "method": "as §1, §2"}},
  "data": [
    {"substance": "bintrafusp alfa: anti-PD-L1:TGFβRII fusion protein, CAS 1918149-01-5; human IgG1 antibody against PD-L1 fused to extracellular domain of human TGF-β receptor II", "values": [
      {"measurement": "expression of A2B", "setting": "ADORA2B (A2B)", "value": "increased"},
      {"measurement": "expression of A2A", "setting": "ADORA2A (A2A) [1]", "value": "no changes"},
      {"measurement": "expression of NT5E (CD73)", "setting": "NT5E (CD73) [2]", "value": "no changes"},
      {"measurement": "tumor growth inhibition, T/C", "setting": "MBT2 cells", "value": 29.9, "unit": "%"},
      {"measurement": "expression of A2A", "setting": "ADORA2A (A2A) [3]", "value": "no changes"},
      {"measurement": "expression of NT5E (CD73)", "setting": "NT5E (CD73) [4]", "value": "no changes"}
    ]}
  ]
}
